Measurements from the NIST ThermoML archive (doi:10.1021/je9004992).
± gives the expanded uncertainty stated by the source.

Test: molar heat capacity at constant pressure
Conditions: Liquid, Small sample (50 mg) DSC

CCCCn1cc[n+](C)c1.F[B-](F)(F)F [1-butyl-3-methylimidazolium tetrafluoroborate]
molar heat capacity at constant pressure [J/K/mol]
Conditions | 283.15 K | 288.15 K | 293.15 K | 298.15 K | 303.15 K | 308.15 K | 313.15 K | 318.15 K | 323.15 K
100 kPa | 360.25 ± 5.6 | 362.17 ± 5.6 | 364.16 ± 5.6 | 366.2 ± 5.7 | 368.3 ± 5.7 | 370.45 ± 5.7 | 372.67 ± 5.8 | 374.95 ± 5.8 | 377.29 ± 5.8
2000 kPa | 360.28 ± 5.6 | 362.2 ± 5.6 | 364.17 ± 5.6 | 366.21 ± 5.7 | 368.31 ± 5.7 | 370.47 ± 5.7 | 372.69 ± 5.8 | 374.97 ± 5.8 | 377.31 ± 5.8
4000 kPa | 360.31 ± 5.6 | 362.22 ± 5.6 | 364.19 ± 5.6 | 366.23 ± 5.7 | 368.33 ± 5.7 | 370.49 ± 5.7 | 372.71 ± 5.8 | 374.99 ± 5.8 | 377.34 ± 5.8
6000 kPa | 360.34 ± 5.6 | 362.24 ± 5.6 | 364.21 ± 5.6 | 366.25 ± 5.7 | 368.34 ± 5.7 | 370.5 ± 5.7 | 372.73 ± 5.8 | 375.01 ± 5.8 | 377.36 ± 5.8
8000 kPa | 360.37 ± 5.6 | 362.27 ± 5.6 | 364.23 ± 5.6 | 366.26 ± 5.7 | 368.36 ± 5.7 | 370.52 ± 5.7 | 372.74 ± 5.8 | 375.03 ± 5.8 | 377.39 ± 5.8
10000 kPa | 360.39 ± 5.6 | 362.29 ± 5.6 | 364.25 ± 5.6 | 366.28 ± 5.7 | 368.37 ± 5.7 | 370.53 ± 5.7 | 372.76 ± 5.8 | 375.05 ± 5.8 | 377.41 ± 5.8
12000 kPa | 360.42 ± 5.6 | 362.31 ± 5.6 | 364.27 ± 5.6 | 366.3 ± 5.7 | 368.39 ± 5.7 | 370.55 ± 5.7 | 372.78 ± 5.8 | 375.08 ± 5.8 | 377.44 ± 5.8
14000 kPa | 360.45 ± 5.6 | 362.34 ± 5.6 | 364.29 ± 5.6 | 366.31 ± 5.7 | 368.4 ± 5.7 | 370.57 ± 5.7 | 372.8 ± 5.8 | 375.1 ± 5.8 | 377.47 ± 5.8
20000 kPa | 360.54 ± 5.6 | 362.4 ± 5.6 | 364.35 ± 5.6 | 366.36 ± 5.7 | 368.45 ± 5.7 | 370.61 ± 5.7 | 372.85 ± 5.8 | 375.16 ± 5.8 | 377.54 ± 5.8
30000 kPa | 360.68 ± 5.6 | 362.52 ± 5.6 | 364.44 ± 5.7 | 366.45 ± 5.7 | 368.53 ± 5.7 | 370.69 ± 5.7 | 372.94 ± 5.8 | 375.26 ± 5.8 | 377.67 ± 5.8
40000 kPa | 360.82 ± 5.6 | 362.64 ± 5.6 | 364.54 ± 5.7 | 366.53 ± 5.7 | 368.61 ± 5.7 | 370.77 ± 5.7 | 373.03 ± 5.8 | 375.37 ± 5.8 | 377.8 ± 5.8
50000 kPa | 360.96 ± 5.6 | 362.75 ± 5.6 | 364.64 ± 5.7 | 366.61 ± 5.7 | 368.69 ± 5.7 | 370.85 ± 5.8 | 373.12 ± 5.8 | 375.47 ± 5.8 | 377.93 ± 5.8
60000 kPa | 361.11 ± 5.6 | 362.87 ± 5.6 | 364.73 ± 5.7 | 366.7 ± 5.7 | 368.77 ± 5.7 | 370.93 ± 5.8 | 373.21 ± 5.8 | 375.58 ± 5.8 | 378.05 ± 5.9

CCn1cc[n+](C)c1.F[B-](F)(F)F [1-ethyl-3-methylimidazolium tetrafluoroborate]
molar heat capacity at constant pressure [J/K/mol]
Conditions | 283.15 K | 288.15 K | 293.15 K | 298.15 K | 303.15 K | 308.15 K | 313.15 K | 318.15 K | 323.15 K
100 kPa | 300.19 ± 4.7 | 301.67 ± 4.7 | 303.23 ± 4.7 | 304.87 ± 4.7 | 306.58 ± 4.8 | 308.36 ± 4.8 | 310.23 ± 4.8 | 312.17 ± 4.8 | 314.18 ± 4.9
2000 kPa | 300.22 ± 4.7 | 301.7 ± 4.7 | 303.26 ± 4.7 | 304.9 ± 4.7 | 306.61 ± 4.8 | 308.4 ± 4.8 | 310.26 ± 4.8 | 312.2 ± 4.8 | 314.21 ± 4.9
4000 kPa | 300.24 ± 4.7 | 301.73 ± 4.7 | 303.29 ± 4.7 | 304.93 ± 4.7 | 306.64 ± 4.8 | 308.43 ± 4.8 | 310.29 ± 4.8 | 312.23 ± 4.8 | 314.24 ± 4.9
6000 kPa | 300.27 ± 4.7 | 301.76 ± 4.7 | 303.32 ± 4.7 | 304.96 ± 4.7 | 306.67 ± 4.8 | 308.46 ± 4.8 | 310.32 ± 4.8 | 312.26 ± 4.8 | 314.27 ± 4.9
8000 kPa | 300.3 ± 4.7 | 301.79 ± 4.7 | 303.35 ± 4.7 | 304.99 ± 4.7 | 306.7 ± 4.8 | 308.49 ± 4.8 | 310.35 ± 4.8 | 312.29 ± 4.8 | 314.3 ± 4.9
10000 kPa | 300.33 ± 4.7 | 301.82 ± 4.7 | 303.38 ± 4.7 | 305.02 ± 4.7 | 306.73 ± 4.8 | 308.52 ± 4.8 | 310.38 ± 4.8 | 312.32 ± 4.8 | 314.33 ± 4.9
12000 kPa | 300.35 ± 4.7 | 301.85 ± 4.7 | 303.41 ± 4.7 | 305.05 ± 4.7 | 306.77 ± 4.8 | 308.55 ± 4.8 | 310.42 ± 4.8 | 312.35 ± 4.8 | 314.36 ± 4.9
14000 kPa | 300.38 ± 4.7 | 301.87 ± 4.7 | 303.44 ± 4.7 | 305.08 ± 4.7 | 306.8 ± 4.8 | 308.59 ± 4.8 | 310.45 ± 4.8 | 312.38 ± 4.8 | 314.39 ± 4.9
20000 kPa | 300.46 ± 4.7 | 301.96 ± 4.7 | 303.53 ± 4.7 | 305.18 ± 4.7 | 306.89 ± 4.8 | 308.68 ± 4.8 | 310.54 ± 4.8 | 312.47 ± 4.8 | 314.48 ± 4.9
30000 kPa | 300.6 ± 4.7 | 302.1 ± 4.7 | 303.68 ± 4.7 | 305.33 ± 4.7 | 307.05 ± 4.8 | 308.84 ± 4.8 | 310.7 ± 4.8 | 312.63 ± 4.8 | 314.63 ± 4.9
40000 kPa | 300.73 ± 4.7 | 302.25 ± 4.7 | 303.83 ± 4.7 | 305.49 ± 4.7 | 307.21 ± 4.8 | 309 ± 4.8 | 310.86 ± 4.8 | 312.79 ± 4.8 | 314.78 ± 4.9
50000 kPa | 300.87 ± 4.7 | 302.39 ± 4.7 | 303.98 ± 4.7 | 305.64 ± 4.7 | 307.37 ± 4.8 | 309.16 ± 4.8 | 311.02 ± 4.8 | 312.94 ± 4.8 | 314.93 ± 4.9
60000 kPa | 301 ± 4.7 | 302.54 ± 4.7 | 304.13 ± 4.7 | 305.8 ± 4.7 | 307.52 ± 4.8 | 309.32 ± 4.8 | 311.17 ± 4.8 | 313.1 ± 4.8 | 315.08 ± 4.9
